The test system of assay [1] is Pyricularia oryzae. It is filed as cell-based. The settings on record: PO, 48 hours.
Assay [2] deals with Fusarium solani. The experiment in a line: Mycelial growth test. It is filed as cell-based. The settings on record: for Percent Fungus Growth Inhibition / inhibition at 5 ppm / inhibition at 10 ppm / inhibition at 20 ppm: PS, 72 hours; for inhibition at 5 ppm / inhibition at 10 ppm / inhibition at 20 ppm / inhibition at 40 ppm: Fusarium solani, 72 h; for inhibition at 5 ppm / inhibition at 10 ppm / inhibition at 20 ppm: read-out: Percent Fungus Growth Inhibition; for inhibition at 40 ppm: read-out: Percent Fungus Growth Inhibition, PS, 40 ppm, 72 hours.

Assay [3] concerns Uromyces phaseoli. The experiment in a line: whole plant or invertebrate. The conditions noted are these: foliar, read-out: Percent Disease Control, foliar, bean rust.
The subject of assay [4] is Uromyces phaseoli. The experiment in a line: whole plant or invertebrate. The conditions noted are these: foliar, 24 h, read-out: Percent Disease Control, curative, bean rust.

Structures can show the parent of a compound that is named as a salt. Where two headings read alike, the source gives them in different places.

For “3-chloro-5-(bromophenoxy)-4H-1,2,6-thiadiazin-4-one [Compound 33]”, the “Spore Germination Rating” value in assay [1] (1.0 ppm) is reported as 2 (40-60); in assay [1] (2.5 ppm), 0 (0-10); in assay [1] (10 ppm) it was 0 (0-10); in assay [1] (40 ppm), 0 (0-10). Further, the “Percent Fungus Growth Inhibition” value in assay [2] (5 ppm) was 3%; in assay [2] (10 ppm) it was 33%; in assay [2] (20 ppm), 53%; in assay [2] (40 ppm) it was 93%.

On to “3-chloro-5-[methylaminocarbonyloxy)phenoxyl]-4H-1,2,6-thiadiazin-4-one [Compound 36]”, for which the “Spore Germination Rating” value in assay [1] (1.0 ppm) is recorded as 4 (80-100); in assay [1] (2.5 ppm) it was 2 (40-60); in assay [1] (10 ppm), 0 (0-10); in assay [1] (40 ppm) it was 0 (0-10). Besides, the “Percent Fungus Growth Inhibition” value in assay [2] (5 ppm) amounted to 30%; in assay [2] (10 ppm), 45%; in assay [2] (20 ppm), 60%; in assay [2] (40 ppm) it was 90%.

Consider `O=c1c(Cl)nsnc1Oc1ccccc1` [Compound 2, 3-chloro-5-phenoxy-4H--1,2,6-thiadiazin-4-one], for which the “Spore Germination Rating” value is on record as 3 (60-80) in assay [1] (1.0 ppm), 1 (10-40) in assay [1] (2.5 ppm), 0 (0-10) in assay [1] (10 ppm) and 0 (0-10) in assay [1] (40 ppm). Further, the inhibition at 5 ppm in assay [2] (5 ppm) turned out to be 53%. Moreover, the inhibition at 10 ppm in assay [2] (10 ppm) is 65%. In assay [2] (20 ppm), the inhibition at 20 ppm amounted to 76%. Also, in assay [2], the inhibition at 40 ppm came to 100%. Further, the results for the pest or weed control at 150 ppm in assay [3] and in assay [4] were 100% and 0%, respectively.

In the case of `Cc1ccc(Oc2nsnc(Cl)c2=O)cc1` [Compound 3, 3-chloro-5-(4-methylphenoxy)-4H--1,2,6-thiadiazin-4-one], the “Spore Germination Rating” value in assay [1] (1.0 ppm) is listed as 0 (0-10); in assay [1] (2.5 ppm), 4 (80-100); in assay [1] (10 ppm) it was 0 (0-10); in assay [1] (40 ppm), 0 (0-10). For the same compound, the inhibition at 5 ppm in assay [2] (5 ppm) was 35%. In addition, in assay [2] (10 ppm), the inhibition at 10 ppm turned out to be 53%. Further, the inhibition at 20 ppm in assay [2] (20 ppm) was 65%. Further, the inhibition at 40 ppm in assay [2] was found to be 65%. Also, the pest or weed control at 150 ppm in assay [3] is 100%; in assay [4], 0%.

As for `CC(C)(C)c1ccc(Oc2nsnc(Cl)c2=O)cc1` [Compound 4, 3-chloro-5-(4-tert-butylphnoxy)-4H--1,2,6-thiadiazin-4-one], the “Spore Germination Rating” value in assay [1] (1.0 ppm) is listed as 4 (80-100); in assay [1] (2.5 ppm), 4 (80-100); in assay [1] (10 ppm) it was 0 (0-10); in assay [1] (40 ppm), 0 (0-10). Also, in assay [2] (5 ppm), the inhibition at 5 ppm was found to be 0%. Further, in assay [2] (10 ppm), the inhibition at 10 ppm is 0%. Further, the inhibition at 20 ppm in assay [2] (20 ppm) is 0%. For the same compound, the inhibition at 40 ppm in assay [2] stood at 8%. Further, the pest or weed control at 150 ppm in assay [3] stood at 100%; in assay [4] it was 75%.

Take `COc1ccc(Oc2nsnc(Cl)c2=O)cc1` [Compound 5, 3-chloro-5-(4-methoxyphenoxy)4H--1,2,6-thiadiazin-4-one]: the “Spore Germination Rating” value in assay [1] (1.0 ppm) is listed as 4 (80-100); in assay [1] (2.5 ppm), 1 (10-40); in assay [1] (10 ppm), 0 (0-10); in assay [1] (40 ppm) it was 0 (0-10). Besides, the inhibition at 5 ppm in assay [2] (5 ppm) came to 18%. In addition, the inhibition at 10 ppm in assay [2] (10 ppm) came out at 35%. For the same compound, in assay [2] (20 ppm), the inhibition at 20 ppm came to 6%. The inhibition at 40 ppm in assay [2] came to 71%. Further, the pest or weed control at 150 ppm in assay [3] was found to be 100%; in assay [4], 0%.

`CCCCOc1ccc(Oc2nsnc(Cl)c2=O)cc1` [Compound 6, 3-chloro-5-(4-n-butoxyphenoxy)-4H--1,2,6-thiadiazin-4-one]: the “Spore Germination Rating” value is recorded as 2 (40-60) in assay [1] (1.0 ppm), 1 (10-40) in assay [1] (2.5 ppm), 2 (40-60) in assay [1] (10 ppm) and 0 (0-10) in assay [1] (40 ppm). Moreover, in assay [2] (5 ppm), the inhibition at 5 ppm was determined as 0%. Moreover, in assay [2] (10 ppm), the inhibition at 10 ppm was found to be 0%. For the same compound, in assay [2] (20 ppm), the inhibition at 20 ppm worked out at 0%. Moreover, the inhibition at 40 ppm in assay [2] stood at 13%. The pest or weed control at 150 ppm in assay [3] was 0%; in assay [4] it was 90%.

With `CCOC(=O)c1ccc(Oc2nsnc(Cl)c2=O)cc1` [Compound 7, 3-chloro-5-(4-ethoxycarbonylphenoxy)-4H--1,2,6-thiadiazin-4-one], the “Spore Germination Rating” value in assay [1] (1.0 ppm), in assay [1] (2.5 ppm), in assay [1] (10 ppm) and in assay [1] (40 ppm) was 1 (10-40) in each case. The inhibition at 5 ppm in assay [2] (5 ppm) is 42%. Moreover, in assay [2] (10 ppm), the inhibition at 10 ppm was determined as 54%. For the same compound, in assay [2] (20 ppm), the inhibition at 20 ppm is 69%. For the same compound, the inhibition at 40 ppm in assay [2] was 88%. Besides, the pest or weed control at 150 ppm in assay [3] was 100%; in assay [4], 0%.

Turning to `CC(=O)Nc1ccc(Oc2nsnc(Cl)c2=O)cc1` [Compound 8, 5-(4-acetylaminophenoxy)-3-chloro-4H--1,2,6-thiadiazin-4-one], the “Spore Germination Rating” value in assay [1] (1.0 ppm) is reported as 4 (80-100); in assay [1] (2.5 ppm) it was 3 (60-80); in assay [1] (10 ppm), 0 (0-10); in assay [1] (40 ppm) it was 0 (0-10). Besides, the inhibition at 5 ppm in assay [2] (5 ppm) came to 3%. Further, the inhibition at 10 ppm in assay [2] (10 ppm) amounted to 41%. Moreover, the inhibition at 20 ppm in assay [2] (20 ppm) was determined as 31%. The inhibition at 40 ppm in assay [2] was 31%. In addition, the pest or weed control at 150 ppm in assay [3] was 100%; in assay [4] it was 0%.

On to `O=c1c(Cl)nsnc1Oc1ccc([N+](=O)[O-])cc1` [Compound 9, 3-chloro-5-(4-nitrophenoxy)-4H--1,2,6-thiadiazin-4-one], for which the “Spore Germination Rating” value in assay [1] (1.0 ppm), in assay [1] (2.5 ppm), in assay [1] (10 ppm) and in assay [1] (40 ppm) was 0 (0-10) each time. Moreover, the inhibition at 5 ppm in assay [2] (5 ppm) was 65%. The inhibition at 10 ppm in assay [2] (10 ppm) is 76%. Moreover, in assay [2] (20 ppm), the inhibition at 20 ppm is 53%. Also, the inhibition at 40 ppm in assay [2] was found to be 100%. The pest or weed control at 150 ppm in assay [3] came to 98%; in assay [4], 0%.

`N#Cc1ccc(Oc2nsnc(Cl)c2=O)cc1` [Compound 10, 3-chloro-5-(4-cyanophenoxy)-4H--1,2,6-thiadiazin-4-one]: the “Spore Germination Rating” value in assay [1] (1.0 ppm), in assay [1] (2.5 ppm), in assay [1] (10 ppm) and in assay [1] (40 ppm) was 0 (0-10) in each case. Besides, in assay [2] (5 ppm), the inhibition at 5 ppm worked out at 17%. Further, the inhibition at 10 ppm in assay [2] (10 ppm) was determined as 33%. The inhibition at 20 ppm in assay [2] (20 ppm) was determined as 50%. Besides, in assay [2], the inhibition at 40 ppm was found to be 75%. The results for the pest or weed control at 150 ppm in assay [3] and in assay [4] were 100% and 0%, respectively.

With `O=c1c(Cl)nsnc1Oc1ccc(F)cc1` [Compound 11, 3-chloro-5-(4-fluorophenoxy)-4H--1,2,6-thiadiazin-4-one], the “Spore Germination Rating” value in assay [1] (1.0 ppm) is 3 (60-80); in assay [1] (2.5 ppm) it was 0 (0-10); in assay [1] (10 ppm) it was 0 (0-10); in assay [1] (40 ppm), 0 (0-10). Besides, the inhibition at 5 ppm in assay [2] (5 ppm) turned out to be 17%. The inhibition at 10 ppm in assay [2] (10 ppm) came out at 33%. In assay [2] (20 ppm), the inhibition at 20 ppm worked out at 83%. Further, the inhibition at 40 ppm in assay [2] was 75%. Moreover, the pest or weed control at 150 ppm in assay [3] and in assay [4] was 0% throughout.

On to `O=c1c(Cl)nsnc1Oc1ccc(Cl)cc1` [Compound 12, 3-chloro-5-(4-chlorophenoxy)-4H--1,2,6-thiadiazin-4-one], for which the “Spore Germination Rating” value in assay [1] (1.0 ppm), in assay [1] (2.5 ppm), in assay [1] (10 ppm) and in assay [1] (40 ppm) was 0 (0-10) throughout. Moreover, the inhibition at 5 ppm in assay [2] (5 ppm) amounted to 71%. Also, the inhibition at 10 ppm in assay [2] (10 ppm) amounted to 59%. The inhibition at 20 ppm in assay [2] (20 ppm) is 65%. Also, in assay [2], the inhibition at 40 ppm was 100%. The pest or weed control at 150 ppm in assay [3] is 100%; in assay [4], 0%.

Regarding `O=c1c(Cl)nsnc1Oc1cccc(Cl)c1` [Compound 13, 3-chloro-5-(3-chlorophenoxy)-4H--1,2,6-thiadiazin-4-one], the “Spore Germination Rating” value in assay [1] (1.0 ppm) is reported as 3 (60-80); in assay [1] (2.5 ppm), 0 (0-10); in assay [1] (10 ppm), 0 (0-10); in assay [1] (40 ppm), 0 (0-10). In addition, in assay [2] (5 ppm), the inhibition at 5 ppm was 38%. Besides, the inhibition at 10 ppm in assay [2] (10 ppm) is 50%. For the same compound, the inhibition at 20 ppm in assay [2] (20 ppm) worked out at 72%. Besides, the inhibition at 40 ppm in assay [2] amounted to 100%. The pest or weed control at 150 ppm in assay [3] amounted to 100%; in assay [4], 90%.

In the case of `O=c1c(Cl)nsnc1Oc1ccccc1Cl` [Compound 14, 3-chloro-5-(2-chlorophenoxy)-4H--1,2,6-thiadiazin-4-one], the “Spore Germination Rating” value in assay [1] (1.0 ppm) is recorded as 3 (60-80); in assay [1] (2.5 ppm), 0 (0-10); in assay [1] (10 ppm), 0 (0-10); in assay [1] (40 ppm), 0 (0-10). For the same compound, in assay [2] (5 ppm), the inhibition at 5 ppm amounted to 44%. The inhibition at 10 ppm in assay [2] (10 ppm) came out at 100%. The inhibition at 20 ppm in assay [2] (20 ppm) worked out at 100%. In assay [2], the inhibition at 40 ppm came to 100%. The pest or weed control at 150 ppm in assay [3] came out at 0%; in assay [4], 100%.

With `O=c1c(Cl)nsnc1Oc1ccc(Br)cc1` [Compound 15, 3-chloro-5-(4-bromophenoxy)-4H--1,2,6-thiadiazin-4-one], the “Spore Germination Rating” value in assay [1] (1.0 ppm) is on record as 0 (0-10); in assay [1] (2.5 ppm), 1 (10-40); in assay [1] (10 ppm) it was 0 (0-10); in assay [1] (40 ppm) it was 0 (0-10). The inhibition at 5 ppm in assay [2] (5 ppm) came out at 0%. Also, the inhibition at 10 ppm in assay [2] (10 ppm) stood at 42%. Moreover, the inhibition at 20 ppm in assay [2] (20 ppm) came to 42%. For the same compound, the inhibition at 40 ppm in assay [2] amounted to 83%. In addition, the pest or weed control at 150 ppm was 100% in assay [3] and 90% in assay [4].

As to `Nc1ccc(Oc2nsnc(Cl)c2=O)cc1` [Compound 27, 5-(4-aminophenoxy)-3-chloro-4H--1,2,6-thiadiazine-4-one hydrochloride], the “Spore Germination Rating” value in assay [1] (2.5 ppm, hydrochloride) is 0 (0-10). Besides, the “Percent Fungus Growth Inhibition” value in assay [2] (10 ppm, hydrochloride) worked out at 8%; in assay [2] (20 ppm, hydrochloride), 13%.

What is called inhibition is the drop in the measured response relative to a control, in per cent.

These data come from patent US4450269A, “Mono-5-substituted-3-chloro-4H-1,2,6-thiadiazin-4-one antifungal agents” (FMC Corporation, priority 1980, dated 1984).
